ChEMBL document CHEMBL5649169 (ChemMedChem, 2018)

What was measured:
[1] = target: Ephrin type-A receptor 7 (Homo sapiens, UniProt Q15375)
[2] = target: Ataxin-2-like protein (Homo sapiens) (UniProt Q8WWM7)
[3] = target: Bromodomain adjacent to zinc finger domain protein 1A (Homo sapiens) (UniProt Q9NRL2)
[4] = target: Protein cholesin (Homo sapiens) (UniProt Q9BRJ6)
[5] = target: F-actin-capping protein subunit alpha-2 (Homo sapiens) (UniProt P47755)
[6] = target: Proteasome adapter and scaffold protein ECM29 (Homo sapiens) (UniProt Q5VYK3)
[7] = target: Eukaryotic translation initiation factor 6 (Homo sapiens) (UniProt P56537)
[8] = target: Fatty acid synthase (Homo sapiens) (UniProt P49327)
Fatty acid synthase (Homo sapiens), sequence (P49327 whole entry, looked up): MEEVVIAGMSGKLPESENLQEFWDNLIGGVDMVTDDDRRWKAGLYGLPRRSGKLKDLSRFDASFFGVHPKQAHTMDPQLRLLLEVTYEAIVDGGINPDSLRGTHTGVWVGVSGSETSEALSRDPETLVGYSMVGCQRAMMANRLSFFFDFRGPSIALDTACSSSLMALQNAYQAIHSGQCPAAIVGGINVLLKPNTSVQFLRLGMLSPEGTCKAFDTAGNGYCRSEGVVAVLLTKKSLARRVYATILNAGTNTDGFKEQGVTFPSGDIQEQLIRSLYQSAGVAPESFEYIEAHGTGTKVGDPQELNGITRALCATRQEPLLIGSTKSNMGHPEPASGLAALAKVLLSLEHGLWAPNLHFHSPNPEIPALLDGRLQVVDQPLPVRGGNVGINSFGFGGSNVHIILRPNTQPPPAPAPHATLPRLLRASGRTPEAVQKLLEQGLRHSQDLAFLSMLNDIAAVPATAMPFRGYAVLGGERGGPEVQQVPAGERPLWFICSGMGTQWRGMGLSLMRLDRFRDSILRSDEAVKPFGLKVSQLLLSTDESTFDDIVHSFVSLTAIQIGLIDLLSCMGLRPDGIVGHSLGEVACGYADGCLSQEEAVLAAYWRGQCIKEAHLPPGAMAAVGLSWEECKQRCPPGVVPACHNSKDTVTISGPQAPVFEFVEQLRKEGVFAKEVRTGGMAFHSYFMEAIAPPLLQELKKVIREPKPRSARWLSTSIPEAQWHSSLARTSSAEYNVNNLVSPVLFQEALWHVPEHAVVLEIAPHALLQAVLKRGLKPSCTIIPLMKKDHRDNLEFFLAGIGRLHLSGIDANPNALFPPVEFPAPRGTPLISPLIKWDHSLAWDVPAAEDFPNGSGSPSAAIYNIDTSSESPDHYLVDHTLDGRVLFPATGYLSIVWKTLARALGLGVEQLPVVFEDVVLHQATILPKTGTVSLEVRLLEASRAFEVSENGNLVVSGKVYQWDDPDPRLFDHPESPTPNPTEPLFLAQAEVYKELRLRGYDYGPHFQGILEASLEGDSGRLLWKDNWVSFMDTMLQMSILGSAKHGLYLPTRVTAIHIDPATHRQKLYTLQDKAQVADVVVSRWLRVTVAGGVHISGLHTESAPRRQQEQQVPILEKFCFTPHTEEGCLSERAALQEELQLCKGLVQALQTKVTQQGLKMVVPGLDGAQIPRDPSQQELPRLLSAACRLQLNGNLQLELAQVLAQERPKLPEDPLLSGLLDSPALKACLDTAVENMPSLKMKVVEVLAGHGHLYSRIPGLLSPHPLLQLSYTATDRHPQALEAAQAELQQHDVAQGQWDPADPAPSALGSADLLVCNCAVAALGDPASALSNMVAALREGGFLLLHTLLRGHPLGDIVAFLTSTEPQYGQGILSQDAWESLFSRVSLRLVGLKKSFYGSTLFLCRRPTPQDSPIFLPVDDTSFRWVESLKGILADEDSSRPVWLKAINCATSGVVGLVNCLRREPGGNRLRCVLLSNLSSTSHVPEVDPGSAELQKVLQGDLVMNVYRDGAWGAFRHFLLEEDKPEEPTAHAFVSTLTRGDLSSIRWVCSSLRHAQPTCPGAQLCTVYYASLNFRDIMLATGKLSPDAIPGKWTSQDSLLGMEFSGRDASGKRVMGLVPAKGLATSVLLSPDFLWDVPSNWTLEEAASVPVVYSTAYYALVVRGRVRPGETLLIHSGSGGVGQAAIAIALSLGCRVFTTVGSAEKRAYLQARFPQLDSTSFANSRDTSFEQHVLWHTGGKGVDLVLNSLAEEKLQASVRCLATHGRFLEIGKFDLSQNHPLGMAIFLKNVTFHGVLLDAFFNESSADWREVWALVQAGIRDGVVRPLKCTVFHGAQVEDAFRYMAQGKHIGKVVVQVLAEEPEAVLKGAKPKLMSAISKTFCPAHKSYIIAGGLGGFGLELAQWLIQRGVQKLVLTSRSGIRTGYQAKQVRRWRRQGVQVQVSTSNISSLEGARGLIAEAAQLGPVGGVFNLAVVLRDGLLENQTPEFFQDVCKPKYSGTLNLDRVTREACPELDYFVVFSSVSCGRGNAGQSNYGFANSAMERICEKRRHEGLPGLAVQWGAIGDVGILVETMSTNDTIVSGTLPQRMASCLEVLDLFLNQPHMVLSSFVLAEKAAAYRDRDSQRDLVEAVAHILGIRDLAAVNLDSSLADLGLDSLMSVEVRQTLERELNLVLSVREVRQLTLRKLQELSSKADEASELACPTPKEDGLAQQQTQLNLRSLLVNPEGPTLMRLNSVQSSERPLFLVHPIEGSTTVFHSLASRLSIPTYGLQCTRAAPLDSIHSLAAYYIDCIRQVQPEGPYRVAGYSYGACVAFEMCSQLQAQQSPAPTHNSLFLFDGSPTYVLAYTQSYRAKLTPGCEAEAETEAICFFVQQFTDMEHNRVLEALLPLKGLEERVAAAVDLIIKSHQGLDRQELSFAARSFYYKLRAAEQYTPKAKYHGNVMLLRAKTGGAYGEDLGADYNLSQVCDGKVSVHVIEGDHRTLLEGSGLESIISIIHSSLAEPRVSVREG

[9] = target: Acidic fibroblast growth factor intracellular-binding protein (Homo sapiens) (UniProt O43427)
Acidic fibroblast growth factor intracellular-binding protein (Homo sapiens), sequence (O43427 whole entry): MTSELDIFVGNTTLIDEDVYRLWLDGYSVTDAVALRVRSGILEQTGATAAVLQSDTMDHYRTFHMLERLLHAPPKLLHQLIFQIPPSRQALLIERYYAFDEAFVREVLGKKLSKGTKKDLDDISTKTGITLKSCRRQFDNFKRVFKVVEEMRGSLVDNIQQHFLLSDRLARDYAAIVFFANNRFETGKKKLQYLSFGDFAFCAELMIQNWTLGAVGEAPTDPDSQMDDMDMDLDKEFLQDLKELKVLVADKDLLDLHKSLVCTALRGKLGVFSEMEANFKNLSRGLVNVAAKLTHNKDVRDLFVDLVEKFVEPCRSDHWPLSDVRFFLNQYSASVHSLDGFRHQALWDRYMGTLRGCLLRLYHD

[10] = target: Host cell factor 1 (Homo sapiens) (UniProt P51610)
[11] = target: Hexokinase-1 (Homo sapiens) (UniProt P19367)
[12] = target: Heterogeneous nuclear ribonucleoproteins C1/C2 (Homo sapiens) (UniProt P07910)
[13] = target: Isocitrate dehydrogenase [NAD] subunit alpha, mitochondrial (Homo sapiens) (UniProt P50213)
[14] = target: Inhibitor of nuclear factor kappa-B kinase subunit epsilon (Homo sapiens) (UniProt Q14164)
[15] = target: MICOS complex subunit MIC60 (Homo sapiens) (UniProt Q16891)
[16] = target: Lysine--tRNA ligase (Homo sapiens) (UniProt Q15046)
Lysine--tRNA ligase (Homo sapiens), sequence (Q15046 2-597 limits assumed): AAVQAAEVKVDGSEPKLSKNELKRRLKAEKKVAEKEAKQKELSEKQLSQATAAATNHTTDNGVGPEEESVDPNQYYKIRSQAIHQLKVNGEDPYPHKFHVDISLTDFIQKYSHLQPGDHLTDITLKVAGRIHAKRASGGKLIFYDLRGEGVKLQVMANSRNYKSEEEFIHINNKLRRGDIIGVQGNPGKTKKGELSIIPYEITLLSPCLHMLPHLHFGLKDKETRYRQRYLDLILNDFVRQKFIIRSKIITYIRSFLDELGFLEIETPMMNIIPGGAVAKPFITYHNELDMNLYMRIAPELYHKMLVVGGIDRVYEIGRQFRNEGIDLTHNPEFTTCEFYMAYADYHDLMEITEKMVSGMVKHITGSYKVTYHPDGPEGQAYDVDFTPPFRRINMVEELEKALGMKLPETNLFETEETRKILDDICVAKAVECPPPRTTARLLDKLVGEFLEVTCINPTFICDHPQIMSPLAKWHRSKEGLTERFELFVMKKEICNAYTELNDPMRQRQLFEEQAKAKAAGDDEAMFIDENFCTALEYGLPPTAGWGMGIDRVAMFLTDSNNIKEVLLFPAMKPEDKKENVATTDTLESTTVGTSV

[17] = target: Leucine-rich PPR motif-containing protein, mitochondrial (Homo sapiens) (UniProt P42704)
[18] = target: Mitogen-activated protein kinase kinase kinase kinase 3 (Homo sapiens) (UniProt Q8IVH8)
[19] = target: MAP kinase-activated protein kinase 5 (Homo sapiens) (UniProt Q8IW41)
[20] = target: Small ribosomal subunit protein uS7m (Homo sapiens) (UniProt Q9Y2R9)
[21] = target: N-alpha-acetyltransferase 15, NatA auxiliary subunit (Homo sapiens) (UniProt Q9BXJ9)
[22] = target: Nucleoside diphosphate kinase A (Homo sapiens) (UniProt P15531)
[23] = target: Nuclear mitotic apparatus protein 1 (Homo sapiens) (UniProt Q14980)
[24] = target: Ubiquitin thioesterase OTUB1 (Homo sapiens) (UniProt Q96FW1)
[25] = target: Protein disulfide-isomerase (Homo sapiens) (UniProt P07237)
[26] = target: Programmed cell death protein 6 (Homo sapiens) (UniProt O75340)
[27] = species: Homo sapiens
[28] = target: Serine/threonine-protein phosphatase PGAM5, mitochondrial (Homo sapiens) (UniProt Q96HS1)
Serine/threonine-protein phosphatase PGAM5, mitochondrial (Homo sapiens), sequence (Q96HS1 whole entry): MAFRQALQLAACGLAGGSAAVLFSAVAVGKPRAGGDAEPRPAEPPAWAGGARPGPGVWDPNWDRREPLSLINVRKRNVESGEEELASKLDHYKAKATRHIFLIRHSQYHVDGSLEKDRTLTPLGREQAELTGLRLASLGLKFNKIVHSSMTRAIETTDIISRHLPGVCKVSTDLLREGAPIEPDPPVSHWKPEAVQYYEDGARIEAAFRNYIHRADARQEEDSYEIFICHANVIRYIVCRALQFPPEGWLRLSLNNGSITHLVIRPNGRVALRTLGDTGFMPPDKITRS

[29] = target: cAMP-dependent protein kinase type II-alpha regulatory subunit (Homo sapiens) (UniProt P13861)
[30] = target: 26S proteasome regulatory subunit 6B (Homo sapiens) (UniProt P43686)
[31] = target: 26S proteasome non-ATPase regulatory subunit 12 (Homo sapiens) (UniProt O00232)
26S proteasome non-ATPase regulatory subunit 12 (Homo sapiens), sequence (O00232 whole entry): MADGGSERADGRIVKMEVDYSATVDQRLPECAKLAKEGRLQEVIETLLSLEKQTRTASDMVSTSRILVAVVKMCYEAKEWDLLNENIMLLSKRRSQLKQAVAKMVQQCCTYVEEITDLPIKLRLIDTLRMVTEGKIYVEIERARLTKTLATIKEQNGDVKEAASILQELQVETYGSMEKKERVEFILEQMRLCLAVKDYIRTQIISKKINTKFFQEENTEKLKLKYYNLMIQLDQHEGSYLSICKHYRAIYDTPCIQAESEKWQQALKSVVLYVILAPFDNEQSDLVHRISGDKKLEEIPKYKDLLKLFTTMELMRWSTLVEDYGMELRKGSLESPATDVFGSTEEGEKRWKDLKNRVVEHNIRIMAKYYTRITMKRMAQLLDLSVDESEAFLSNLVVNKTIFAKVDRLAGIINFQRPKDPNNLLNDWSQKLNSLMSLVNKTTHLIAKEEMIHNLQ

[32] = target: Poly(U)-binding-splicing factor PUF60 (Homo sapiens) (UniProt Q9UHX1)
[33] = target: Glycogen phosphorylase, liver form (Homo sapiens) (UniProt P06737)
[34] = target: Ras-related protein Rab-5B (Homo sapiens) (UniProt P61020)
Ras-related protein Rab-5B (Homo sapiens), sequence (P61020 whole entry): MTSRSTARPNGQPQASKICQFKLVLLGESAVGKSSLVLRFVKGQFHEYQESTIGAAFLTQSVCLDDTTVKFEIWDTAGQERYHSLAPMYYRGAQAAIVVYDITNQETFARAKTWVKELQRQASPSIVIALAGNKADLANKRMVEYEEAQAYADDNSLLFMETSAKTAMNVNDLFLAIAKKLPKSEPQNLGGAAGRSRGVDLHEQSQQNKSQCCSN

[35] = target: Ran-specific GTPase-activating protein (Homo sapiens) (UniProt P43487)
[36] = target: Arginine--tRNA ligase, cytoplasmic (Homo sapiens) (UniProt P54136)
[37] = target: RuvB-like 2 (Homo sapiens) (UniProt Q9Y230)
[38] = target: Sorting and assembly machinery component 50 homolog (Homo sapiens) (UniProt Q9Y512)
[39] = target: Adenosine 3'-phospho 5'-phosphosulfate transporter 1 (Homo sapiens) (UniProt Q8TB61)
[40] = target: Equilibrative nucleobase transporter 1 (Homo sapiens) (UniProt Q8NBI5)
Equilibrative nucleobase transporter 1 (Homo sapiens), sequence (Q8NBI5 whole entry): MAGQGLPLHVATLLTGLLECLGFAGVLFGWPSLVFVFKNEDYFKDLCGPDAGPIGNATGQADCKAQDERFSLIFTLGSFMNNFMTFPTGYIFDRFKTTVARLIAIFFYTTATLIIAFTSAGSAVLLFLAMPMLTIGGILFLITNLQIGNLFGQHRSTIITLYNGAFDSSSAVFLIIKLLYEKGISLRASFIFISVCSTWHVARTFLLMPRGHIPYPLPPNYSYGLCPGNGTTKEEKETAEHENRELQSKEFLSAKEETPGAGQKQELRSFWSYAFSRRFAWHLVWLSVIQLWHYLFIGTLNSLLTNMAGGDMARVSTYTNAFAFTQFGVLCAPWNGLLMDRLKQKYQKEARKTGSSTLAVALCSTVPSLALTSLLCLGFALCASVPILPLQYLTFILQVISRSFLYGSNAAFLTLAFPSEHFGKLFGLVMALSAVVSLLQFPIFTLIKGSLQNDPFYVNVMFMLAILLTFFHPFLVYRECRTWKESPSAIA

[41] = target: Serine/threonine-protein kinase 4 (Homo sapiens) (UniProt Q13043)
[42] = target: Very-long-chain enoyl-CoA reductase (Homo sapiens) (UniProt Q9NZ01)
[43] = target: Mitochondrial import inner membrane translocase subunit TIM50 (Homo sapiens) (UniProt Q3ZCQ8)
[44] = target: Transportin-1 (Homo sapiens) (UniProt Q92973)
[45] = target: Transitional endoplasmic reticulum ATPase (Homo sapiens) (UniProt P55072)
[46] = target: Exportin-7 (Homo sapiens) (UniProt Q9UIA9)
Also: assay method not described here.

Cc1ccc(C(=O)Nc2cccc(C(F)(F)F)c2)cc1Nc1nc(-c2cccnc2)nc2c1cnn2C
ED50 [1]: 15.8 µM | ED50 [2]: 3.43 µM | ED50 [3]: 0.532 µM | ED50 [4]: 0.0151 µM | ED50 [5]: 3.23 µM | ED50 [6]: 11 µM | ED50 [7]: 3 µM | ED50 [8]: 0.0377 µM | ED50 [9]: 3.14 µM | ED50 [10]: 1.41 µM | ED50 [11]: 0.00555 µM | ED50 [12]: 0.127 µM | ED50 [13]: 0.836 µM | ED50 [14]: 0.123 µM | ED50 [15]: 5.75 µM | ED50 [16]: 0.758 µM | ED50 [17]: 0.112 µM | ED50 [18]: 20500 µM | ED50 [19]: 26.2 µM | ED50 [20]: 7.18 µM | ED50 [21]: 11.7 µM | ED50 [22]: 7.65 µM | ED50 [23]: 0.000308 µM | ED50 [24]: 3.76 µM | ED50 [25]: 4.25 µM | ED50 [26]: 1.36 µM | ED50 [27]: 3.66 µM | ED50 [28]: 0.809 µM | ED50 [29]: 8.24 µM | ED50 [30]: 6.14 µM | ED50 [31]: 3.2 µM | ED50 [32]: 11 µM | ED50 [33]: 0.00239 µM | ED50 [34]: 18.1 µM | ED50 [35]: 3.63 µM | ED50 [36]: 0.886 µM | ED50 [37]: 5000 µM | ED50 [38]: 0.784 µM | ED50 [39]: 0.0218 µM | ED50 [40]: 12.9 µM | ED50 [41]: 2.73 µM | ED50 [42]: 3.86 µM | ED50 [43]: 3.59 µM | ED50 [44]: 3.81 µM | ED50 [45]: 5.07 µM | ED50 [46]: 0.0517 µM

Cc1ccc(C(=O)Nc2cccc(C(F)(F)F)c2)cc1Nc1nc(-c2cccnc2)nc2nn(C)cc12
ED50 [1]: 1.49 µM | ED50 [2]: 10.3 µM | ED50 [3]: 0.0186 µM | ED50 [4]: 39.4 µM | ED50 [5]: 2.53 µM | ED50 [6]: 1.15 µM | ED50 [7]: 0.223 µM | ED50 [8]: 0.107 µM | ED50 [9]: 0.0301 µM | ED50 [10]: 0.0523 µM | ED50 [11]: 173 µM | ED50 [12]: 7.54 µM | ED50 [13]: 0.0344 µM | ED50 [14]: 9.31 µM | ED50 [15]: 0.00743 µM | ED50 [16]: 1.77 µM | ED50 [17]: 3.28 µM | ED50 [18]: 28.7 µM | ED50 [19]: 0.047 µM | ED50 [20]: 154 µM | ED50 [21]: 2.07 µM | ED50 [22]: 2.02 µM | ED50 [23]: 0.0318 µM | ED50 [24]: 0.655 µM | ED50 [25]: 11.7 µM | ED50 [26]: 1.04 µM | ED50 [27]: 17.5 µM | ED50 [28]: 7.34 µM | ED50 [29]: 0.325 µM | ED50 [30]: 0.508 µM | ED50 [31]: 0.0504 µM | ED50 [32]: 0.00583 µM | ED50 [33]: 5.79 µM | ED50 [34]: 0.0327 µM | ED50 [35]: 8.14 µM | ED50 [36]: 0.443 µM | ED50 [37]: 0.0478 µM | ED50 [38]: 0.00806 µM | ED50 [39]: 39.2 µM | ED50 [40]: 33.9 µM | ED50 [41]: 0.0498 µM | ED50 [42]: 1.31 µM | ED50 [43]: 1.85 µM | ED50 [44]: 0.464 µM | ED50 [45]: 0.0706 µM | ED50 [46]: 0.0173 µM
